Results: PubChem BioAssay AID1159536 (DiRusso Lab, Biochemistry Department, University of Nebraska, 2015)
Results filed as inconclusive are left out. Active and inactive are the calls of the source. The rule behind the calls is not given here.

System: Chlamydomonas reinhardtii, Nile Red lipid fluorescence, 72 h
Experiment: algal triacylglycerol accumulation inducers, dose response, qHTS, Chlamydomonas reinhardtii (AID 1159536)

SMILES	EC50
O=C1C2C3CCC(C3)C2C(=O)N1c1nccs1 (stereo not drawn)	13500 nM (inactive)
CC1CCCN(C2CCN(S(=O)(=O)c3ccc(F)cc3)CC2)C1 (stereo not drawn)	13100 nM
Cc1cc(Br)ccc1OCCCN1CCN(C)CC1	2180 nM
OC(COc1ccc(Cl)cc1Cl)CN1CCN(Cc2ccccc2)CC1 (stereo not drawn)	7670 nM
C=CCNCC(=O)NC12CC3CC(CC(C3)C1)C2	2810 nM
O=C1CC(N2CCc3ccccc3C2)C(=O)N1c1ccc([N+](=O)[O-])cc1 (stereo not drawn)	15700 nM (inactive)
COc1cccc(N2CCN(Cc3ccsc3)CC2)c1	10000 nM
CC(C)(Oc1ccc(Cl)cc1)C(=O)N1CCN(c2ccc(F)cc2)CC1	2130 nM (inactive)
Cc1cc(Br)ccc1OCCOCCN1CCOCC1	7810 nM
Cc1ccccc1N1CCN(Cc2ccc(F)cc2)CC1	1350 nM
CC(C)(C)c1csc(NC(=O)c2ccc(N3CCOCC3)c([N+](=O)[O-])c2)n1	2660 nM
O=C(c1ccccc1)c1ccc(OCCCCn2ccnc2)cc1	1330 nM (inactive)
CC(=O)N(C1=C(N(C)C)C(=O)c2ccccc2C1=O)c1ccc(Cl)c(Cl)c1	2650 nM (inactive)
CN1CCC(N(C)Cc2cc(Cl)ccc2O)CC1	2560 nM
O=C(CN1CCCCC1)NCC12CC3CC(CC(C3)C1)C2	9270 nM
C=C(C)CN(CC)C(=O)C1CCN(CC2CC=CCC2)CC1 (stereo not drawn)	2730 nM
CC1CCC(N2CCN(Cc3ccccc3)CC2)CC1 (stereo not drawn)	5560 nM
Cc1ccc(CN2CCN(c3ccc(F)cc3)CC2)cc1	4.39 nM
CC(C)(C)c1ccc(OCC(O)CN2CCN(CCO)CC2)cc1 (stereo not drawn)	1290 nM
COc1cc(C)c(CN2CCN(Cc3ccc4c(c3)OCO4)CC2)cc1C	2040 nM
COc1ccc(CN2CCN(Cc3ccccc3)CC2)c(OC)c1OC	11600 nM

SMILES	EC50
COc1ccc(CN(C)C2CCCCC2)c(C)c1C	608 nM
O=C(C1COc2ccccc2O1)N1CCN(Cc2ccccc2)CC1 (stereo not drawn)	10600 nM
Cc1cc(Cl)c(OCCOCCN2CCN(C)CC2)c(Br)c1	3100 nM
Fc1ccccc1N1CCN(CC2CCCCC2)CC1	10500 nM
Fc1ccc(CN2CCN(c3cccc(Cl)c3)CC2)cc1	1290 nM
O=[N+]([O-])c1ccccc1CN1CCN(CC2CC3C=CC2C3)CC1 (stereo not drawn)	11700 nM (inactive)
Cc1ccccc1N1CCN(Cc2ccc(O)cc2)CC1	10000 nM
CCN(CC)CC(=O)Nc1ccc(Br)cc1	10600 nM
COc1ccc(OC)c(CNCCc2ccc([N+](=O)[O-])cc2)c1	646 nM
COc1cc(C(=O)Nc2nc3c(s2)CCCC3)cc(OC)c1OC	379 nM (inactive)
Cc1ccc(OCCCn2ccnc2)c(Br)c1	1260 nM
COc1ccccc1N1CCN(C2CCN(Cc3cccc(F)c3)CC2)CC1	10600 nM
O=C(O)C1CC=CCC1C(=O)Nc1ccc(F)cc1F (stereo not drawn)	13200 nM (inactive)
Cc1ccc(C)c(N2CCN(CC3CC4C=CC3C4)CC2)c1 (stereo not drawn)	30400 nM
OC(COc1ccc(Br)cc1)CN1CCCCCC1 (stereo not drawn)	10600 nM (inactive)
Cc1ccccc1OCCCCN1CCOCC1	9790 nM
Oc1ccccc1CNCCC12CC3CC(CC(C3)C1)C2	2490 nM (inactive)
CC1CN(CC(O)COc2ccc(C(C)(C)C)cc2)CC(C)O1 (stereo not drawn)	9950 nM
COc1ccc(CN2CCN(C/C=C/c3ccccc3)CC2)cc1	6560 nM
COc1ccc(OC)c(CN2CCN(Cc3ccc([N+](=O)[O-])cc3)CC2)c1	1350 nM
COc1cccc(NC2=C(N(C)C)C(=O)c3ccccc3C2=O)c1	1870 nM (inactive)

SMILES	EC50
CC(C)NC(=O)c1ccccc1NC(=O)c1ccc(Cl)cc1	590 nM (inactive)
O=C(CN1CCCCC1)Nc1ncc(Cc2ccc(F)cc2)s1	58.5 nM (inactive)
Cc1ccsc1/C=C(\C#N)c1nc(-c2ccc([N+](=O)[O-])cc2)cs1	14900 nM (inactive)
Cc1ccc(OCCCCN2CCCC2)c(Br)c1	2650 nM
C(#CC12CC3CC(CC(C3)C1)C2)CN1CCOCC1	3270 nM
COc1ccc(CNCc2ccc(C)cc2)c(OC)c1	9940 nM (inactive)
Cc1cc(Br)ccc1OCCCCN1CCN(C)CC1	3380 nM
CC(C)(Oc1ccc(Cl)cc1)C(=O)Nc1ccc(Br)cc1F	1810 nM (inactive)
O=C(Nc1ccc([N+](=O)[O-])cc1)c1ccccc1Cl	5110 nM
CN1CCN(CCOc2ccc(C(C)(C)c3ccccc3)cc2)CC1	2370 nM (inactive)
C1=CC2CC1CC2CN1CCN(C2CCC(c3ccccc3)CC2)CC1 (stereo not drawn)	1460 nM
Cc1ccc(C(=O)c2ccc(N3CCN(C)CC3)c([N+](=O)[O-])c2)cc1	2590 nM (inactive)
CCN(CC)c1cc(C)nc(N)n1	2530 nM (inactive)
Cc1cc(Br)ccc1OCCCCN1CCCC1	2710 nM
C(=C\c1ccccc1)/CN1CCN(C2CCc3ccccc3C2)CC1 (stereo not drawn)	9920 nM
Clc1ccc(OCCCCN2CCOCC2)c(Br)c1	854 nM
C(=C\c1ccccc1)/CN1CCN(CC2CCCCC2)CC1	644 nM
CC(C)=CCC[C@H](C)CCN1CCN(C)CC1	10000 nM
CCc1ccc(CN2CCN(c3ccccc3C)CC2)cc1	1330 nM (inactive)
O=[N+]([O-])c1ccc(CNC2CCCC2)cc1	645 nM
Cn1c(SCC(=O)NCc2ccccc2)nnc1-c1ccc(C(C)(C)C)cc1	7310 nM (inactive)
